# Measurements as given in patent publication US20220380331A1, “TREATMENT OF CONDITIONS OF THE NERVOUS SYSTEM” (priority 2019, published 2022).
# Legend:
# [1] = test system: perineuronal nets (PNNs) in the ventral horn; test: Chronic PNNi treatment, immunohistochemistry of PNNs in the ventral horn 12 weeks post-injury; format: in vivo, rat; conditions: T4-6 sections
# Description: FIG. 15. Chronic PNNi treatment preferentially reduces expression of perineuronal nets (PNNs), labelled by key PNN components, in the ventral horn (VH). Rat spinal cord sections (T4-6) obtained at 12 weeks post-injury were stained and intensity was analysed in the VH. […] A transcardial perfusion (Gage et al., 2012) was then performed using sodium phosphate buffer (PB; 0.12 M sodium phosphate monobasic; 0.1 M NaOH; pH 7.4) followed by 4% paraformaldehyde (PFA; in PB; pH 7.4) for tissue fixation. The brain and spinal cord were dissected out, post-fixed in PFA (4%; 4° C.) overnight and cryoprotected in 30% sucrose solution (30% v/w sucrose in PB; 4° C.) until tissue saturation. The left brain hemisphere and appropriate spinal cord segments were excised and frozen in optimum temperature medium (OCT; Leica FSC 22 Frozen Section Media; Leica Biosystems) before storage at -80° C. until sectioning. […] Total number of neurones and the number of neurones surrounded by PNNs were quantified by two independent researchers, blinded to the study. Results were analysed with one-way ANOVA for statistical significance. […] Rat spinal cord sections (T4-6) obtained at 12 weeks post-injury were stained and intensity was analysed in the VH.
# PNNs in the spinal cord = test: Short-term (10 days) PNNi administration, histology of PNN/ECM components in the CNS; format: in vivo, rat
# Description: Animals were given an overdose of sodium pentobarbital (Pentoject; Henry Schein; 200 mg/kg; intraperitoneal injection) to deeply […] without halting cardiac function. A transcardial perfusion (Gage et al., 2012) was then performed using sodium phosphate buffer (PB; 0.12 M sodium phosphate monobasic; 0.1 M NaOH; pH 7.4) followed by 4% paraformaldehyde (PFA; in PB; pH 7.4) for tissue fixation. The brain and spinal cord were dissected out, post-fixed in PFA (4%; 4° C.) overnight and cryoprotected in 30% sucrose solution (30% v/w sucrose in PB; 4° C.) until tissue saturation. The left brain hemisphere and appropriate spinal cord segments were excised and frozen in optimum temperature medium (OCT; Leica FSC 22 Frozen Section Media; Leica Biosystems) before storage at -80° C. until sectioning. Sectioning of tissue was performed using a cryostat (Leica CM1850; Leica Biosystems) into 40 μm transverse sections for free-floating sections and collected into 48-well plates containing physiological buffer solution (PBS; 0.13 M sodium chloride, […], 0.003 M sodium phosphate monobasic; pH 7.4) to remove the OCT before being transferred to 30% sucrose solution for storage at 4° C. At room temperature (RT), sections were washed three times for 5 min each in Tris-buffered saline (TBS; 0.1 M tris base, 0.15 M NaCl; pH 7.4) to remove sucrose residue. Tissue was then blocked in 0.3% TBST (1×TBS solution and 0.3% v/v Triton X-100) and 3% normal donkey serum (NDS; v/v) for two hours. The sections were then transferred to co-incubate at 4° C. in blocking buffer (3% NDS in 0.3% TBST; pH 7.4) containing primary antibodies. Following primary antibody or lectin incubation, sections were then washed thrice using TBS (10 mins; RT). To visualise each primary antibody staining, the tissue was then co-incubated in darkness with the fluorescent-conjugated secondary antibodies (1:500; 2 hrs; RT) against the species of the primary antibodies. Tissues were then washed three times in TBS (10 mins; RT) whilst protected from light. A final wash in Tris non-saline (TNS; 0.5 M Tris, pH 7.6) was given to reduce precipitation before air-drying. Tissues were mounted on Superfrost Plus slides, air-dried and coverslipped with the mounting medium FluorSaveTM Reagent (EMD Millipore). Lectins: biotinylated Wisteria floribunda agglutinin (bio-WFA), biotinylated hyaluronan binding protein (bHABP). […] PNNi treatment was consequently investigated in vivo, with short-term administration (10 days) via either oral feeding or intraperitoneal (i.p.) injection twice daily. […] Quantification in the dorsal horn of the spinal cord illustrated that ten days of oral PNNi administration induced a partial removal of WFA-positive moieties to 71.0±7.20% of baseline ECM levels (t(3)=5.15, p=0.0142; FIG. 9P). […] As oral PNNi treatment is both non-invasive and generated sufficient effects on the neural ECM in vivo, the following PNNi dosing experiments with Lister Hooded rats used this method of administration.
# PNN^+HEK cells = test: Removal of PNNs in vitro in PNN+HEK cell model (WFA staining); format: cell-based, human
# Text: A previously developed human embryonic kidney 293T (HEK) cell model, engineered to express the essential ECM components (hyaluronan synthase 3 (HAS-3) and HAPLN-1) required to induce the formation of a pericellular PNN-like structure (PNN^+HEK cells) (Kwok et al., 2010), was used to investigate the efficacy of PNNi in removing PNNs in vitro (FIG. 9A-I).
# [2] = Nagy et al., 2015; cited from earlier work
compound,measurement,setting,value
"Cc1cc(=O)oc2cc(O)ccc12 [PNNi, 4-methylumbelliferone]",number of PNNs labelled by ACAN and WFA in the ventral horn,[1],partially decreases number of PNNs
same,"WFA-positive moieties, of baseline ECM levels","PNNs in the spinal cord; dorsal horn of the spinal cord, ten days oral",71.0±7.20%
same,"HAPLN-1 staining, of baseline levels","PNNs in the spinal cord; dorsal horn, short-term oral",68.3±8.09%
same,"staining with HA binding protein (HABP), of baseline levels","PNNs in the spinal cord; dorsal horn, short-term oral",64.0±5.84%
same,"PNNs (ACAN staining, HABP) after 10 days oral administration in intact rats","PNNs in the spinal cord; intact rats, 10 days oral",PNNs are reduced
same,WFA-positive binding throughout the CNS compared to non-treated animals,"PNNs in the spinal cord; ten days dosing, oral feeding or i.p. injection twice daily",sufficient in decreasing WFA-positive binding
same,chondroitin sulphate and hyaluronan in the spinal cord,PNNs in the spinal cord; ten-day non-invasive oral administration,down-regulates both chondroitin sulphate and hyaluronan
same,WFA-positive staining removed,"PNN^+HEK cells; two days of treatment, 0.5 mM or 1.0 mM",86.4±4.47%
same,"staining intensity recovered, of baseline lectin binding",PNN^+HEK cells; within three days post-treatment,43.6±14.6%
same,solubility in aqueous solution,[2],near insoluble
